Results from publication PMC7092840 (Biochemical Pharmacology, 2011).
Read-outs that look alike come from different tables or passages of the source. Marks after values point to notes of the source that are not given here.

What was measured:
BHK cells [1] = experiment: Cell cholesterol content; conditions: 10 μM, 16 h, p = 0.03, N = 5
[2] = tested on: early endosomes from BHK cells
[3] = tested on: feline immunodeficiency virus (FIV) VLP budding from 293T cells; assay type: cell-based
blood monocytes = experiment: Transferrin recycling; assay type: cell-based; conditions: human monocytes, 10 μM
[4] = tested on: HIV-1 VLP budding from 293T cells; assay type: cell-based, human immunodeficiency virus type 1
BHK cells [5] = experiment: Distribution of LBPA-positive structures, confocal morphometry; assay type: cell-based; conditions: 16 h; for LBPA-positive structures Diameter / LBPA-positive structures N°/cell profile: BHK cells, 10 μM analogue, M ± SE; for LBPA-positive structures Diameter: control 1.46 ± 0.02; for LBPA-positive structures N°/cell profile: control 28.6 ± 1.1
K562 cells = experiment: Exosome release; conditions: 10 μM, 16 h, N = 7, change not significant
Vero cells = assay type: cell-based
[6] = Aqueous solubility of hydrochloride salt; assay type: physicochemical; conditions: for Aqueous solubility of hydrochloride salt At pH 5.0 / Aqueous solubility of hydrochloride salt At pH 7.4 / solubility: 22 °C; for Aqueous solubility of hydrochloride salt At pH 5.0: 5 mM K2PO4 adjusted to pH 5.0, methanol as cosolvent; for Aqueous solubility of hydrochloride salt At pH 7.4: 5 mM K2PO4 adjusted to pH 7.4, methanol as cosolvent; for pKa × solubility in water at pH 5.0: product of calculated pKa and solubility at pH 5.0; for solubility: phosphate buffer
[7] = ref http://www.patentstorm.us/patents/6939865/description.html; cited from earlier work
[8] = ref [27]; cited from earlier work
BHK cells [9] = experiment: Cell viability / tolerated concentration; assay type: cell-based
[10] = 10 μM, 5 independent experiments, p < 0.01

SMILES	LBPA-positive structures Diameter (BHK cells [5]) [μm]	LBPA-positive structures N°/cell profile (BHK cells [5])	Aqueous solubility of hydrochloride salt At pH 5.0 [6]	Aqueous solubility of hydrochloride salt At pH 7.4 [6]	pKa × solubility in water at pH 5.0 [6]	other results
CCCCc1oc2ccccc2c1C(=O)c1cc(I)c(OCCN(CC)CC)c(I)c1 [AMI, Amiodarone]	2.01 ± 0.03	5.2 ± 0.4				increase in cell cholesterol (BHK cells [1]): 17.3 ± 5.2%; change in endosome-associated fluorescence [2]: no change; release of mature VLPs (FIV) [3]: did not inhibit the release of mature VLPs; effect on transferrin recycling (blood monocytes): no effect; release of mature VLPs (HIV-1) [4]: did not inhibit the release of mature VLPs; decrease in number of LBPA-rich structures per cell profile (BHK cells [5]; [10]): 69.0 ± 4.5%; increase in diameter of LBPA-rich structures (BHK cells [5]; [10]): 42.6 ± 5.2%; decrease in secreted acetylcholinesterase with respect to control cells (K562 cells): 12.0 ± 8.7%; effect on activity of Shiga toxin (Vero cells): not decreased
CCCCc1oc2ccccc2c1C(=O)c1cc(I)c(OCCN(C(C)C)C(C)C)c(I)c1.Cl [DIPAM, (2-butyl-benzofuran-3-yl)-4-[2-(diisopropylamino)ethoxy]-3,5-diiodophenyl-methanone·hydrochloride]	1.64 ± 0.04	24.6 ± 3.0	0.23 ^b μM	0.014 ^b μM	2.07	
CCCCc1oc2ccc(NS(C)(=O)=O)cc2c1C(=O)c1ccc(OCCCN(CCCC)CCCC)cc1 [DRO, Dronedarone]						Aqueous solubility of hydrochloride salt At pH 7.4 [7]: <0.001 ^c μM; serum levels, times lower than in patients treated with amiodarone [8]: over 10 times; highest concentration tolerated by transfected cells (BHK cells [9]; BHK cells transiently transfected with pEGFP-LC3, 16 h): 2 µM; concentration toxic to cells (BHK cells [9]; BHK cells, 16 h): > 5 µM
CCCCc1oc2ccccc2c1C(=O)c1cc(I)c(OCCNCC)c(I)c1 [MDEA, 2-n-butyl-3-(3,5-diiodo-4-ethylaminoethoxybenzoyl)-benzofuran, reference compound]						solubility ([6]; pH 5): 12 µM; solubility ([6]; pH 7.4): 0.11 µM
CCCCc1oc2ccccc2c1C(=O)c1cc(I)c(OCCN2CCOCC2)c(I)c1 [MOPAM, 2-n-butyl-3-(3,5-diiodo-4-β-Nmorpholinoethoxybenzoyl)benzofuran]	1.45 ± 0.02	29.3 ± 0.6	0.17 ^b μM	0.015 ^b μM	0.55	
CCCCc1oc2ccccc2c1C(=O)c1cc(I)c(OCCN(C)C)c(I)c1 [MeAMI, (2-butyl-benzofuran-3-yl)-4-[2-(dimethylamino-ethoxy)-3,5-diiodophenyl]methanone]	2.45 ± 0.08	4.5 ± 0.6	2.21 ^b μM	0.051 ^b μM	17.50	
CCCCc1oc2ccccc2c1C(=O)c1cc(I)c(OCCN2CCCCC2)c(I)c1.Cl [PIPAM, 4-(2-butyl-benzofuran-3-yl)-[3,5-diiodophenyl-4-(2-piperidinoethoxy)phenyl] methanone·hydrochloride]	1.73 ± 0.03	14.7 ± 2.1	2.22 ^b μM	0.023 ^b μM	11.88	
CCCCc1oc2ccccc2c1C(=O)c1cc(I)c(OCCN2CCCC2)c(I)c1.Cl [PYRAM, 4-(2-butyl-benzofuran-3-yl)-[3,5-diiodophenyl-4-(2-pyrrolidin-1-yl-ethoxy)phenyl]-methanone·hydrochloride]	2.08 ± 0.05	7.6 ± 0.6	1.86 ^b μM	0.049 ^b μM	9.22	
